US20230132088A1, “DETECTION OF GENE POLYMORPHISMS” (The Board of Trustees of the Leland Stanford Junior …, priority 2020, published 2023)

Test: Population pharmacokinetic analysis of INH clearance in tuberculosis patients, by predicted NAT2 acetylator type
Conditions: human, plasma, INH clearance rate (median), 48 pulmonary TB patients

## NNC(=O)c1ccncc1 [INH, isoniazid]
Predicted fast (rapid) acetylators
  clearance: 778 mL/min
Predicted intermediate acetylators
  clearance: 683 mL/min
Predicted slow acetylators, standardized weight-based dosing
  clearance: 322 mL/min
